Measured values from patent US20240158446A1, “CYCLIC COMPOUND HAVING SELECTIVE INHIBITORY ACTION ON KRAS OVER HRAS AND NRAS” (CHUGAI SEIYAKU KABUSHIKI KAISHA, priority 2021, published 2024).
Read-outs that look alike come from different tables or passages of the source.

How the values were obtained:
[1] = target: GDP-bound KRAS wild-type protein (Homo sapiens, UniProt P01116); experiment: Binding to KRAS by surface plasmon resonance (SPR), Single Cycle Kinetics; conditions: GDP-bound KRAS wild-type protein, read-out: KRAS KD
Sequence of GDP-bound KRAS wild-type protein (P01116 whole entry): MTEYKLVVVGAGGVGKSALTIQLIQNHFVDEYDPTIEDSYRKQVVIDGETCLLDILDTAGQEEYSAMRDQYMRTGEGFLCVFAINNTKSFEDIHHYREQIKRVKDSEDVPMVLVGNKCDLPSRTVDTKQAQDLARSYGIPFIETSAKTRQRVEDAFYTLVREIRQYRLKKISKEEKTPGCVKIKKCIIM

[2] = target: GDP-bound NRAS wild-type protein (Homo sapiens, UniProt P01111); experiment: Binding to NRAS by surface plasmon resonance (SPR), Single Cycle Kinetics; conditions: for NRAS/KRAS (ratio of KD value for NRAS to KD value for KRAS): SPR, GDP-bound NRAS wild-type protein vs GDP-bound KRAS wild-type protein
Sequence of GDP-bound NRAS wild-type protein (P01111 whole entry): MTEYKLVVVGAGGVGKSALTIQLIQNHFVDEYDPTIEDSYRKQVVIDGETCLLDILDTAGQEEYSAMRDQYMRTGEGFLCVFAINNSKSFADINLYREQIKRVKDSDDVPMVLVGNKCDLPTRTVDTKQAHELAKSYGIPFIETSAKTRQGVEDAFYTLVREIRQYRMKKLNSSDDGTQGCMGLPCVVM

[3] = target: GDP-bound HRAS wild-type protein (Homo sapiens, UniProt P01112); experiment: Binding to HRAS by surface plasmon resonance (SPR), Single Cycle Kinetics; conditions: for HRAS/KRAS (ratio of KD value for HRAS to KD value for KRAS): SPR, GDP-bound HRAS wild-type protein vs GDP-bound KRAS wild-type protein
Sequence of GDP-bound HRAS wild-type protein (P01112 whole entry): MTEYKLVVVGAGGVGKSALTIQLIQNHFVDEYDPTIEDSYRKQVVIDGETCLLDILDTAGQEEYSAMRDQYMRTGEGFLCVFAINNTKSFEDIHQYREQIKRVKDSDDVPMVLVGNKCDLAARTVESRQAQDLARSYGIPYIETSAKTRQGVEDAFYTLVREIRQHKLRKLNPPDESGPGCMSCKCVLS

[4] = system: human lung cancer strain NCI-H441;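 note: cell proliferation inhibition after four days measured by CellTiter-Glo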
[5] = SPR, Single Cycle Kinetics, 1:1 binding model

| Compound | Kd [1, 5] [nM] | IC50 [4] [nM] | Kd ([1]; SPR, Single Cycle Kinetics) [nM] | Kd ([1]; SPR Single Cycle Kinetics, 1:1 binding model) [nM] | NRAS/KRAS (ratio of KD value for NRAS to KD value for KRAS) ([2]; KD ratio class) | HRAS/KRAS (ratio of KD value for HRAS to KD value for KRAS) ([3]; KD ratio class) | NRAS/KRAS (ratio of KD value for NRAS to KD value for KRAS) [2] | HRAS/KRAS (ratio of KD value for HRAS to KD value for KRAS) [3] | NRAS/KRAS (ratio of KD value with respect to GDP-bound NRAS wild-type protein to KD value with respect to KRAS) ([2]; SPR KD ratio NRAS/KRAS, class symbols) | HRAS/KRAS (ratio of KD value with respect to GDP-bound HRAS wild-type protein to KD value with respect to KRAS) ([3]; SPR KD ratio HRAS/KRAS, class symbols) |
| --- | --- | --- | --- | --- | --- | --- | --- | --- | --- | --- |
| CCO[C@@H]1C[C@H]2C(=O)NC3(CCC3)C(=O)N(C)[C@@H](C(CC)CC)C(=O)N(C)[C@H](C(=O)N(C)C)CC(=O)N(C)[C@@H](CC)C(=O)N[C@@H]([C@@H](C)CC)C(=O)N(C)CC(=O)N(C)[C@H]3C/C=C\CCN(C3=O)[C@@H](Cc3ccc(C(F)(F)F)cc3)C(=O)N(C)CC(=O)N[C@@H](CCc3cc(F)c(Cl)c(F)c3)C(=O)N2C1 [PP1230] | 0.77 | 110 |  |  | A (a compound having 10 or more and less than 20 is denoted as A) | A (a compound having 10 or more and less than 20 is denoted as A) |  |  |  |  |
| CCOC[C@H]1C(=O)N[C@@H]([C@@H](C)CC)C(=O)N(C)CC(=O)N(C)[C@H]2C/C=C\CCN(C2=O)[C@@H](Cc2ccc(C)cc2)C(=O)N(C)CC(=O)N[C@@H](CCc2ccc(C(F)(F)F)c(Cl)c2)C(=O)N2C[C@@H](C)C[C@H]2C(=O)NC2(CC(C)(C)C2)C(=O)N(C)[C@@H](C2CCCC2)C(=O)N(C)[C@H](C(=O)N(CC)CC)CC(=O)N1C [PP2465] |  | 39.4 | 0.51 |  |  |  | AA (a compound having 20 or more is denoted as AA) | A (a compound having 10 or more and less than 20 is denoted as A) |  |  |
| CCOC[C@H]1C(=O)N[C@@H]([C@@H](C)CC)C(=O)N(C)CC(=O)N(C)[C@H]2C/C=C\CCN(C2=O)[C@@H](Cc2ccc(C)cc2)C(=O)N(C)CC(=O)N[C@@H](CCc2cc(F)c(C(F)(F)F)c(F)c2)C(=O)N2C[C@@H](C)C[C@H]2C(=O)NC2(CC(C)(C)C2)C(=O)N(C)[C@@H](C2CCCC2)C(=O)N(C)[C@H](C(=O)N(CC)CC)CC(=O)N1C [PP2407] |  | 60.1 | 0.5 |  |  |  | A (a compound having 10 or more and less than 20 is denoted as A) | A (a compound having 10 or more and less than 20 is denoted as A) |  |  |
| CCC(CC)[C@H]1C(=O)N(C)[C@H](C(=O)N(C)C)CC(=O)N(C)[C@@H](COC)C(=O)N[C@@H]([C@@H](C)CC)C(=O)N(C)CC(=O)N(C)[C@H]2C/C=C\CCN(C2=O)[C@@H](Cc2ccc(C(F)(F)F)cc2)C(=O)N(C)CC(=O)N[C@@H](CCc2ccc(Cl)c(Cl)c2)C(=O)N2C[C@H](OC3CCCC3)C[C@H]2C(=O)NC2(CC(C)(C)C2)C(=O)N1C [PP2648] |  | 68.5 |  | 0.85 |  |  |  |  | A (a compound having 10 or more and less than 20 is denoted as A) | A (a compound having 10 or more and less than 20 is denoted as A) |
| CCC[C@H]1C(=O)N[C@@H]([C@@H](C)CC)C(=O)N(C)CC(=O)N(C)[C@H]2C/C=C\CCN(C2=O)[C@@H](Cc2ccc(C(F)(F)F)cc2)C(=O)N(C)CC(=O)N[C@@H](CCc2ccc3sccc3c2)C(=O)N2C[C@H](OCC)C[C@H]2C(=O)NC2(CCC2)C(=O)N(C)[C@@H](C2CCCC2)C(=O)N(C)[C@H](C(=O)N(C)C)CC(=O)N1C [PP1256] | 0.36 | 69 |  |  | A (a compound having 10 or more and less than 20 is denoted as A) | A (a compound having 10 or more and less than 20 is denoted as A) |  |  |  |  |
| CCC[C@H]1C(=O)N[C@@H](CC(C)C)C(=O)N(C2CC2)CC(=O)N(C)[C@H]2C/C=C\CCN(C2=O)[C@@H](Cc2ccc(C)cc2)C(=O)N(C)CC(=O)N[C@@H](CCc2cc(F)c(C(F)(F)F)c(F)c2)C(=O)N2C[C@H](OCC)C[C@H]2C(=O)NC2(CC(C)(C)C2)C(=O)N(C)[C@@H](C2CCCC2)C(=O)N(C)[C@H](C(=O)N(C)C)CC(=O)N1C [PP2508] |  | 124 | 3.4 |  |  |  | A (a compound having 10 or more and less than 20 is denoted as A) | B (a compound having 3 or more and less than 10 is denoted as B) |  |  |

These reach a lower IC50 [4]. Values come first.

| Kd [1, 5] [nM] | IC50 [4] [nM] | Kd ([1]; SPR, Single Cycle Kinetics) [nM] | Kd ([1]; SPR Single Cycle Kinetics, 1:1 binding model) [nM] | Compound | NRAS/KRAS (ratio of KD value for NRAS to KD value for KRAS) ([2]; KD ratio class) | HRAS/KRAS (ratio of KD value for HRAS to KD value for KRAS) ([3]; KD ratio class) | NRAS/KRAS (ratio of KD value for NRAS to KD value for KRAS) [2] | HRAS/KRAS (ratio of KD value for HRAS to KD value for KRAS) [3] | NRAS/KRAS (ratio of KD value with respect to GDP-bound NRAS wild-type protein to KD value with respect to KRAS) ([2]; SPR KD ratio NRAS/KRAS, class symbols) | HRAS/KRAS (ratio of KD value with respect to GDP-bound HRAS wild-type protein to KD value with respect to KRAS) ([3]; SPR KD ratio HRAS/KRAS, class symbols) |
| --- | --- | --- | --- | --- | --- | --- | --- | --- | --- | --- |
| 0.6 | 24.2 |  |  | CCO[C@@H]1C[C@H]2C(=O)NC3(CC(C)(C)C3)C(=O)N(C)[C@@H](C3CCCC3)C(=O)N(C)[C@H](C(C)C)CC(=O)N(C)[C@@H](CC)C(=O)N[C@@H]([C@@H](C)CC)C(=O)N(C)CC(=O)N(C)[C@H]3C/C=C\CCN(C3=O)[C@@H](Cc3ccc(C(F)(F)F)cc3)C(=O)N(C)CC(=O)N[C@@H](CCc3cc(F)c(C(F)(F)F)c(F)c3)C(=O)N2C1 [PP1588] | B (a compound having 3 or more and less than 10 is denoted as B) | B (a compound having 3 or more and less than 10 is denoted as B) |  |  |  |  |
|  | 32.5 | 0.081 |  | CCO[C@@H]1C[C@H]2C(=O)NC3(CCC3)C(=O)N(C)[C@@H](C3CCCC3)C(=O)N(C)[C@H](C(=O)N3CCOCC3)CC(=O)N(C)[C@@H](CC(F)F)C(=O)N[C@@H]([C@@H](C)CC)C(=O)N(C)CC(=O)N(C)[C@H]3CCCCCN(C3=O)[C@@H](Cc3ccc(F)cc3)C(=O)N(C)CC(=O)N[C@@H](CCc3cc(F)c(C(F)(F)F)c(F)c3)C(=O)N2C1 [PP1177] |  |  | B (a compound having 3 or more and less than 10 is denoted as B) | B (a compound having 3 or more and less than 10 is denoted as B) |  |  |
| 0.22 | 37.6 |  |  | CCO[C@@H]1C[C@H]2C(=O)NC3(CCC3)C(=O)N(C)[C@@H](C3CCCC3)C(=O)N(C)[C@H](C(=O)N3CCOCC3)CC(=O)N(C)[C@@H](CC3CC3)C(=O)N[C@@H]([C@@H](C)CC)C(=O)N(C)CC(=O)N(C)[C@H]3C/C=C\CCN(C3=O)[C@@H](Cc3ccc(C)cc3)C(=O)N(C)CC(=O)N[C@@H](CCc3cc(F)c(C(F)(F)F)c(F)c3)C(=O)N2C1 [PP1408] | A (a compound having 10 or more and less than 20 is denoted as A) | A (a compound having 10 or more and less than 20 is denoted as A) |  |  |  |  |
|  | 8.9 | 0.061 |  | CCO[C@@H]1C[C@H]2C(=O)NC3(CC(C)(C)C3)C(=O)N(C)[C@@H](C3CCCC3)C(=O)N(C)[C@H](C(=O)N(C)CC)CC(=O)N(C)[C@@H](COC)C(=O)N[C@@H]([C@@H](C)CC)C(=O)N(C)CC(=O)N(C)[C@H]3C/C=C\CCN(C3=O)[C@@H](Cc3ccc(C)cc3)C(=O)N(C)CC(=O)N[C@@H](CCc3ccc(C(F)(F)F)c(Cl)c3)C(=O)N2C1 [PP2507] |  |  | AA (a compound having 20 or more is denoted as AA) | A (a compound having 10 or more and less than 20 is denoted as A) |  |  |
|  | 7.7 | 0.31 |  | CC[C@H](C)[C@@H]1NC(=O)[C@H](COC)N(C)C(=O)C[C@@H](C(=O)N(CC)CC)N(C)C(=O)[C@H](C2CCCC2)N(C)C(=O)C2(CC(C)(C)C2)NC(=O)[C@@H]2C[C@H](C)CN2C(=O)[C@H](CCc2ccc(C(F)(F)F)c(Cl)c2)NC(=O)CN(C)C(=O)[C@H](Cc2ccc(C)cc2)N2CC/C=C\C[C@@H](C2=O)N(C)C(=O)CN(C)C1=O [PP2399] |  |  | AA (a compound having 20 or more is denoted as AA) | A (a compound having 10 or more and less than 20 is denoted as A) |  |  |
|  | 2.1 | 0.85 |  | CCC[C@H]1C(=O)N[C@@H]([C@@H](C)CC)C(=O)N2CCC[C@H]2C(=O)N(C)[C@H]2C/C=C\CCN(C2=O)[C@@H](CC2CCC(F)(F)CC2)C(=O)N(C)CC(=O)N[C@@H](CCc2ccc(C(F)(F)F)c(OC)c2)C(=O)N2C[C@@H](C)C[C@H]2C(=O)N(C)C2(CCC2)C(=O)N(C)[C@@H](C2CCCC2)C(=O)N(C)[C@H](C(=O)N(C)C)CC(=O)N1C [PP2380] |  |  | A (a compound having 10 or more and less than 20 is denoted as A) | A (a compound having 10 or more and less than 20 is denoted as A) |  |  |
| 0.29 | 10.3 |  |  | CCO[C@@H]1C[C@H]2C(=O)NC3(CCC3)C(=O)N(C)[C@@H](C3CCCC3)C(=O)N(C)[C@H](C(=O)N3CCOCC3)CC(=O)N(C)[C@@H](CC(C)C)C(=O)N[C@@H]([C@@H](C)CC)C(=O)N3CC[C@H]3C(=O)N(C)[C@H]3CC[C@@H](C)CN(C3=O)[C@@H](Cc3ccc(C(F)(F)F)cc3)C(=O)N(C)CC(=O)N[C@@H](CCc3ccc(C(F)(F)F)c(Cl)c3)C(=O)N2C1 [PP1379] | A (a compound having 10 or more and less than 20 is denoted as A) | B (a compound having 3 or more and less than 10 is denoted as B) |  |  |  |  |
|  | 22.9 | 0.29 |  | CC[C@H](C)[C@@H]1NC(=O)[C@H](COC)N(C)C(=O)C[C@@H](C(=O)N(CC)CC)N(C)C(=O)[C@H](C2CCCC2)N(C)C(=O)C2(CC(C)(C)C2)NC(=O)[C@@H]2C[C@H](C)CN2C(=O)[C@H](CCc2ccc(C(F)(F)F)c(OC)c2)NC(=O)CN(C)C(=O)[C@H](Cc2ccc(C)cc2)N2CC/C=C\C[C@@H](C2=O)N(C)C(=O)CN(C)C1=O [PP2441] |  |  | AA (a compound having 20 or more is denoted as AA) | A (a compound having 10 or more and less than 20 is denoted as A) |  |  |
